# Results published in PubChem BioAssay (NCI).
# “And” between values parts separate entries of the source, which are not always exact repeats. Equal entries are not always repeated.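 Cultured in 96-well plates, cells were exposed to test compound for 48 hours across five concentrations. GI50 marks 50% less growth. TGI: total growth inhibition.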
# Assays:
# Assay in all cases: NCI-60 cell line screen, 48 h
# MDA-N = system: MDA-N
# UO-31 renal = system: UO-31 renal
# RPMI-8226 leukemia = system: RPMI-8226 leukemia
# HOP-62 NSCLC = system: HOP-62 NSCLC
# UACC-62 melanoma = system: UACC-62 melanoma
# LOX IMVI melanoma = system: LOX IMVI melanoma
# NCI-H226 lung = system: NCI-H226 lung
# HCC-2998 colon = system: HCC-2998 colon
# RXF 393 renal = system: RXF 393 renal
# HT29 colon = system: HT29 colon
# HCT-15 colon = system: HCT-15 colon
# NCI/ADR-RES ovarian = system: NCI/ADR-RES ovarian
# ACHN renal = system: ACHN renal
# SNB-19 CNS = system: SNB-19 CNS
# MDA-MB-231 breast = system: MDA-MB-231 breast
# SF-539 CNS = system: SF-539 CNS
# SK-MEL-5 melanoma = system: SK-MEL-5 melanoma
# SF-295 CNS = system: SF-295 CNS
# TK-10 renal = system: TK-10 renal
# MDA-MB-435 = system: MDA-MB-435
# SK-OV-3 ovarian = system: SK-OV-3 ovarian
# EKVX NSCLC = system: EKVX NSCLC
# BT-549 breast = system: BT-549 breast
# OVCAR-3 ovarian = system: OVCAR-3 ovarian
# MCF7 breast = system: MCF7 breast
# HL-60(TB) leukemia = system: HL-60(TB) leukemia
# PC-3 prostate = system: PC-3 prostate
# DU-145 prostate = system: DU-145 prostate
# OVCAR-4 ovarian = system: OVCAR-4 ovarian
# SNB-75 CNS = system: SNB-75 CNS
compound,measurement,setting,value
O=C1/C(=C\c2ccc([N+](=O)[O-])cc2)CS(=O)(=O)C/C1=C/c1ccc([N+](=O)[O-])cc1,GI50,MDA-N,305 nM
same,TGI,MDA-N,1630 nM
same,GI50,UO-31 renal,605 nM
same,TGI,UO-31 renal,366 nM and 1850 nM
same,TGI,RPMI-8226 leukemia,547 nM
same,GI50,HOP-62 NSCLC,284 nM
same,TGI,HOP-62 NSCLC,3940 nM
same,GI50,UACC-62 melanoma,1840 nM
same,TGI,UACC-62 melanoma,519 nM and 4120 nM
same,GI50,LOX IMVI melanoma,30.9 nM
same,GI50,NCI-H226 lung,163 nM
same,GI50,HCC-2998 colon,11300 nM
same,TGI,HCC-2998 colon,25600 nM
same,TGI,RXF 393 renal,1450 nM
same,GI50,HT29 colon,127 nM
same,TGI,HT29 colon,382 nM and 2770 nM
same,GI50,HCT-15 colon,58 nM
same,TGI,HCT-15 colon,258 nM and 638 nM
same,GI50,NCI/ADR-RES ovarian,315 nM
same,TGI,NCI/ADR-RES ovarian,3150 nM
same,GI50,ACHN renal,190 nM
same,TGI,ACHN renal,405 nM and 2190 nM
same,TGI,SNB-19 CNS,22200 nM
same,GI50,MDA-MB-231 breast,360 nM
same,TGI,MDA-MB-231 breast,533 nM
same,GI50,SF-539 CNS,136 nM
same,TGI,SF-539 CNS,579 nM and 363 nM
same,GI50,SK-MEL-5 melanoma,400 nM
same,TGI,SK-MEL-5 melanoma,3030 nM
same,GI50,SF-295 CNS,563 nM
same,TGI,SF-295 CNS,6420 nM
same,GI50,TK-10 renal,992 nM
same,TGI,TK-10 renal,2970 nM
same,GI50,MDA-MB-435,208 nM
same,TGI,MDA-MB-435,808 nM and 1500 nM
same,TGI,SK-OV-3 ovarian,15500 nM
same,GI50,EKVX NSCLC,348 nM
same,TGI,EKVX NSCLC,4950 nM
same,TGI,BT-549 breast,845 nM and 1120 nM
same,GI50,OVCAR-3 ovarian,76.1 nM
same,TGI,OVCAR-3 ovarian,329 nM and 754 nM
same,GI50,MCF7 breast,157 nM
same,TGI,MCF7 breast,2120 nM
same,GI50,HL-60(TB) leukemia,13.8 nM
same,TGI,HL-60(TB) leukemia,145 nM
same,GI50,PC-3 prostate,194 nM
same,TGI,PC-3 prostate,713 nM and 1510 nM
same,GI50,DU-145 prostate,870 nM
same,TGI,DU-145 prostate,12400 nM
same,GI50,OVCAR-4 ovarian,207 nM
same,TGI,OVCAR-4 ovarian,612 nM and 1370 nM
same,TGI,SNB-75 CNS,53200 nM
